Legend:
rats = conditions: L-carnitine together with ifosfamide; cited from earlier work
[1] = system: proximal tubule of the kidneys; test: comparative investigation of nephrotoxicity in healthy and tumour-bearing rats; type: in vivo
From the text: In accordance with the set object, comparative investigations were investigated [sic] out with respect to effect on the nephrotoxicity in healthy and tumour-bearing rats after administration of ifosfamide on its own and in combination with L-carnitine. The doses for L-carnitine were selected such that the compound itself causes no side effects at all in the animals.

tumour-bearing rats = test: antitumour action of ifosfamide in combination with L-carnitine; type: in vivo; conditions: FIGS. 1 and 2

SMILES | clinical result (rats) | effect on ifosfamide-induced damage to the proximal tubule of the kidney ([1]; simultaneous administration of L-carnitine 2×100 mg/kg i.v. with ifosfamide, rats) | damage to the proximal tubule of the kidneys ([1]; ifosfamide on its own, healthy and tumour-bearing rats (both animal groups)) | antitumour action of ifosfamide (tumour-bearing rats)
C[N+](C)(C)C[C@H](O)CC(=O)[O-] [L-carnitine] | decreased lethargy | antagonized significantly |  | 
O=P1(NCCCl)OCCCN1CCCl (stereo not shown) [ifosfamide] |  |  | clear dose-dependent damage | not affected
